# pIC50: −log10 of the molar value.
# System: not listed separately
# Test: Drug uptake in human HCA-7 cells overexpressing COX2 assessed as fluorescence at 10 uM after 1 hr by confocal laser scanning microscopic analysis
# Format: ADME, cell-based
# Conditions: hca-7, 1 h; call rule not given here
row,Drug uptake,Compound
1,Not Active,CCN(CC)c1ccc2c(-c3ccccc3C(=O)O)c3ccc(=[N+](CC)CC)cc-3oc2c1 [RHODAMINE B]

# Target: T1, Prostaglandin G/H synthase 1 (Ovis aries, UniProt P05979)
# T1 sequence (P05979 whole entry): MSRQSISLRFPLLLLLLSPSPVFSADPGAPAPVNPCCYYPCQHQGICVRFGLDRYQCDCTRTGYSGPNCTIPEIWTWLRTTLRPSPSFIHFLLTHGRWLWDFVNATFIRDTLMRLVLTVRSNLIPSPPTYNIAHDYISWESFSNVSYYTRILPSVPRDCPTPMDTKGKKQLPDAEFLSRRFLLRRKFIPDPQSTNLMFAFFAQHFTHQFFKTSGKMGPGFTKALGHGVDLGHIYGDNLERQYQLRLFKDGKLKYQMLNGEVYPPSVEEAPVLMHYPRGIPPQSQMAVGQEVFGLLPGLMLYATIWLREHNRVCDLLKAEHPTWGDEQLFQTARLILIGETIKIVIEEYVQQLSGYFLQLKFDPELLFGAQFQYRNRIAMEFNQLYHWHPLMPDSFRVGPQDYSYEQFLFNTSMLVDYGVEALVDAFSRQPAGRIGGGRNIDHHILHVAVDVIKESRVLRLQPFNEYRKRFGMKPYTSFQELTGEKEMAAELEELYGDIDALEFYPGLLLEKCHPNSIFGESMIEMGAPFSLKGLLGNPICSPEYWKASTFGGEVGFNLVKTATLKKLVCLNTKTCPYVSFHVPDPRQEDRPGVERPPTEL
# Test: Inhibition of ovine COX1
# Conditions: not given
row,pIC50,Compound
1,< 4.00,CC(C)Cc1ccc(C(C)C(=O)OCCNS(=O)(=O)c2cccc3c(N(C)C)cccc23)cc1 (stereo unspecified)
2,4.13,CC(C)Cc1ccc(C(C)C(=O)OCCn2c3ccccc3c(=O)c3ccccc32)cc1 (stereo unspecified)
3,4.52,COc1ccc2cc([C@H](C)C(=O)OCCn3c4ccccc4c(=O)c4ccccc43)ccc2c1
4,4.40,CC(=O)Oc1ccccc1C(=O)OCCn1c2ccccc2c(=O)c2ccccc21
5,4.06,O=c1c2ccccc2n(CCOS(=O)(=O)c2ccc(C(F)(F)F)cc2)c2ccccc12
6,4.29,CC(C)Cc1ccc(C(C)C(=O)n2c3ccccc3c(=O)c3ccccc32)cc1 (stereo unspecified)
7,4.74,COc1ccc2cc([C@H](C)C(=O)n3c4ccccc4c(=O)c4ccccc43)ccc2c1
8,< 4.00,CN(C)c1cccc2c(S(=O)(=O)NCCNS(=O)(=O)c3ccc(C4=C(c5ccc(Cl)cc5)C(=O)OC4)cc3)cccc12
9,< 4.00,Cc1ccc(-c2cc(C(F)(F)F)nn2-c2ccc(S(=O)(=O)NCCNS(=O)(=O)c3cccc4c(N(C)C)cccc34)cc2)cc1
10,< 4.00,CCN(CC)c1ccc2c(c1)Oc1cc(N(CC)CC)ccc1C21c2ccccc2C(=O)N1CCNS(=O)(=O)c1ccc(-n2nc(C(F)(F)F)cc2-c2ccc(C)cc2)cc1
